Key:
A498 [1] = test: In vitro cytotoxic activity against renal (A498) cell line; assay type: functional; settings: Homo sapiens
A498 [2] = test: In vitro cytotoxic activity against renal (A498) cell line at a concentration of 10e-5 M; assay type: functional, Homo sapiens
DU-145 [3] = test: In vitro cytotoxic activity against prostate (DU145) cell line; assay type: functional; settings: Homo sapiens
DU-145 [4] = test: In vitro cytotoxic activity against prostate (DU145) cell line at a concentration of 10e-5 M; assay type: functional, Homo sapiens
M14 [5] = test: In vitro cytotoxic activity against Melanoma (M14) cell line at a concentration of 10e-5 M; assay type: functional, Homo sapiens
MCF7 [6] = test: In vitro cytotoxic activity against breast (MCF-7/ADR) cell line; assay type: functional; settings: Homo sapiens
MCF7 [7] = test: In vitro cytotoxic activity against breast (MCF-7/ADR) cell line at a concentration of 10e-5 M; assay type: functional, Homo sapiens
M14 [8] = test: In vitro cytotoxic activity against Melanoma (M14) cell line; assay type: functional; settings: Homo sapiens
Mus musculus [9] = test: In vivo potential in Swiss Albino Mice using modified hollow fiber assay at the dose of 100 mg/kg as total score; assay type: functional
Mus musculus [10] = test: In vivo potential in Swiss Albino Mice using modified hollow fiber assay at the dose of 100 mg/kg by ip administration; assay type: functional; settings: route intraperitoneal
Mus musculus [11] = test: In vivo potential in Swiss Albino Mice using modified hollow fiber assay at the dose of 100 mg/kg by sc administration; assay type: functional; settings: route subcutaneous
Mus musculus [12] = test: In vivo potential in Swiss Albino Mice using modified hollow fiber assay at the dose of 50 mg/kg as total score; assay type: functional
Mus musculus [13] = test: In vivo potential in Swiss Albino Mice using modified hollow fiber assay at the dose of 50 mg/kg by ip administration; assay type: functional; settings: route intraperitoneal
Mus musculus [14] = test: In vivo potential in Swiss Albino Mice using modified hollow fiber assay at the dose of 50 mg/kg by sc administration; assay type: functional; settings: route subcutaneous
SK-OV-3 [15] = test: In vitro cytotoxic activity against Ovarian (SK-OV3) cell line; assay type: functional; settings: Homo sapiens
SW-620 [16] = test: In vitro cytotoxic activity against colon (SW620) cell line; assay type: functional; settings: Homo sapiens
SW-620 [17] = test: In vitro cytotoxic activity against colon (SW620) cell line at a concentration of 10e-5 M; assay type: functional, Homo sapiens
U-251 [18] = test: In vitro cytotoxic activity against CNS(U251) cell line; assay type: functional; settings: Homo sapiens
U-251 [19] = test: In vitro cytotoxic activity against CNS(U251) cell line at a concentration of 10e-5 M; assay type: functional, Homo sapiens
SK-OV-3 [20] = test: In vitro cytotoxic activity against Ovarian (SK-OV3) cell line at a concentration of 10e-5 M; assay type: functional, Homo sapiens
NCI-H522 [21] = test: In vitro cytotoxic activity against lung (H522) cell line; settings: Homo sapiens
NCI-H522 [22] = test: In vitro cytotoxicity against H522 (human adenocarcinoma) cell line at a concentration of 10e-5 M.
NCI-H522 [23] = test: In vitro cytotoxic activity against lung (H522) cell line at a concentration of 10e-5 M; assay type: functional, Homo sapiens
Mus musculus [24] = test: In vivo potential in Swiss Albino Mice using modified hollow fiber assay at the dose of 150 mg/kg as total score; assay type: functional
Mus musculus [25] = test: In vivo potential in Swiss Albino Mice using modified hollow fiber assay at the dose of 150 mg/kg by ip administration; assay type: functional; settings: route intraperitoneal
Mus musculus [26] = test: In vivo potential in Swiss Albino Mice using modified hollow fiber assay at the dose of 150 mg/kg by sc administration; assay type: functional; settings: route subcutaneous
Mus musculus [27] = test: In vivo potential in Swiss Albino Mice using modified hollow fiber assay at the dose of 75 mg/kg as total score; assay type: functional
Mus musculus [28] = test: In vivo potential in Swiss Albino Mice using modified hollow fiber assay at the dose of 75 mg/kg by ip administration; assay type: functional; settings: route intraperitoneal
Mus musculus [29] = test: In vivo potential in Swiss Albino Mice using modified hollow fiber assay at the dose of 75 mg/kg by sc administration; assay type: functional; settings: route subcutaneous
NCI-H522 [30] = test: In vitro cytotoxic activity against lung (H522) cell line at a concentration of 10e-5 M

Compound | GI50 (A498 [1]) | Growth (A498 [2]) | GI50 (DU-145 [3]) | Growth (DU-145 [4]) | Growth (M14 [5]) | GI50 (MCF7 [6]) | Growth (MCF7 [7]) | GI50 (M14 [8]) | GI50 (SK-OV-3 [15]) | GI50 (SW-620 [16]) | Growth (SW-620 [17]) | GI50 (U-251 [18]) | Growth (U-251 [19]) | Growth (SK-OV-3 [20]) | GI50 (NCI-H522 [21]) | Growth (NCI-H522 [22]) | Score (Mus musculus [24]) | Score (Mus musculus [25]) | Score (Mus musculus [26]) | Score (Mus musculus [27]) | also measured
CC(=O)O[C@@H]1CC2C(C)(C)/C(=N/OCCN3CCCC3)C=C[C@]2(C)C2CC[C@]3(C)C(=CC[C@H]3c3ccoc3)[C@@]21C (some centres not stated) | 4 µM | -16% | 6 µM | 32% | 26% | 3 µM | 22% | 5 µM | 4 µM | 3 µM | -51% | 4 µM | -24% | -35% | 4 µM | -13.9% | – | – | – | – | Score (Mus musculus [9]): 46; Score (Mus musculus [10]): 24; Score (Mus musculus [11]): 22; Score (Mus musculus [12]): 22; Score (Mus musculus [13]): 14; Score (Mus musculus [14]): 8
CC1(C)C(=O)C=C[C@@]2(C)C1CC(=O)[C@@]1(C)C3=CC[C@@H](c4ccoc4)[C@]3(C)CCC12 (some centres not stated) | 4 µM | 9% | 6 µM | 7% | 7% | 3 µM | 30% | 0.6 µM | 7.5 µM | 3 µM | 3% | 6 µM | 27% | 43% | 25 µM | – | – | – | – | – | Growth (NCI-H522 [23]): 43%
CC(=O)O[C@H]1C[C@@H](OC(C)=O)C(C)(C)C2C[C@@H](OC(C)=O)[C@@]3(C)C4=CC[C@@H](c5ccoc5)[C@]4(C)CCC3[C@]21C (some centres not stated) | 15 µM | -5% | 4 µM | -19% | -22% | 4 µM | 38% | 5 µM | 9 µM | 3 µM | -60% | 30 µM | -24% | 42% | 40 µM | 8% | 48 | 24 | 24 | 18 | Score (Mus musculus [28]): 12; Score (Mus musculus [29]): 6
CC(=O)O[C@@H]1CC2C(C)(C)C(=O)C=C[C@]2(C)C2CC[C@]3(C)C(=CC[C@H]3c3ccoc3)[C@@]21C (some centres not stated) | 2 µM | 23% | 0.05 µM | -6% | -6% | 0.06 µM | -18% | 0.08 µM | 5 µM | 7 µM | 29% | 2.5 µM | -4% | 30% | 6 µM | – | 48 | 24 | 24 | 36 | Score (Mus musculus [28]): 14; Score (Mus musculus [29]): 12; Growth (NCI-H522 [30]): 29%

Reference: ChEMBL document CHEMBL1136447, “Biological investigation and structure-activity relationship studies on azadirone from Azadirachta indica A. Juss” (2003)
